From patent US7632872B2, “Analgesic agent for newborn or fetal subjects” (Protexeon Limited, priority 2002, dated 2009)
Read-outs that look alike come from different tables or passages of the source. Marks after values point to notes of the source that are not given here.

Assays:
[1] = system: rats; conditions: cited from earlier work
[2] = system: c-Fos positive neurones; assay: Example 1: formalin hindpaw injection in 7 day neonatal rat pup, cFos positive neurones in dorsal horn; assay type: in vivo; conditions: 7 day old rat; dorsal horn of spinal cord; 90 minutes after formalin; xenon 70% v/v, nitrous oxide at a normally analgesic dose in the adult rat
Experimental: The analgesic efficacy of xenon was investigated in a neonatal rat pup. A 7 day neonatal rat pup is known to be developmentally equivalent to a human full term fetus with respect to pain processing pathways.
A 7 day old rat was injected with formalin into the hindpaw during exposure to either air or xenon (70% v/v). 90 minutes later the animal was killed and the spinal cord removed; evidence of activation of pain-processing pathways by formalin was sought by counting the number of cFos positive neurones in the dorsal horn of the spinal cord.

[3] = cited from earlier work
[4] = system: Fischer rats; assay: Formalin plantar test, nociceptive intensity scoring (behaviour); assay type: in vivo, rat; conditions: for area under curve (AUC) of nociceptive intensity scoring curves: 70% Xe + formalin, AUC over 60 min, mean(SEM), n=3-4
Experimental: (§1) The study protocol was approved by the Home Office (UK), and all efforts were made to minimize animal suffering and the number of animals used. Fischer rats were used for the entire study (B&K Universal, Grimston Aldbrough Hull, UK). The rats were provided ad libitum food and water, and artificial lighting between 6 a.m. and 6 p.m. The age of each animal was determined from the body weight, based on a previously established growth curve (Hashimoto et al., 2002). (The date of birth was defined as 0 day-old.) Experiments were performed on rat pups of 7, 19, 28 day-old and on adult rats (11-12 week-old).
(§2) Within each age-group, there were three cohorts (n=3 - 4) “Air+formalin”, “Xenon+formalin” and “Air+saline” cohorts. In the Air+formalin group, animals exposed to air were injected with 5% formalin into the plantar surface of their left hind paw subcutaneously. In the Xenon+formalin group, animals exposed to 70% Xe/20% O2/10% N2 were injected with 5% formalin as described above. In the Air+saline group, animals exposed to air were injected with saline as above. The volumes of formalin or saline injected were adjusted for each age group as previously reported [Ohashi Y et al, Pain 2002;100:7-18] and were as follows: 10 μl for 7 days old; 15 μl for 19 days old; 20 μl for 28 days old; 50 μl for adults.
(§3) A recirculating system for exposure to the gas was constructed to minimise xenon consumption (FIG. 3). The circuit was flushed with gas (either air or xenon/oxygen/nitrogen) at a flow rate of 4 l/min and after the desired gas concentrations were achieved, the flow rate was reduced to 40 ml/min for the remainder of the experimental period. The carbon dioxide level and the humidity were kept less than 0.6% and 50% respectively with soda lime and silica gel. Formalin or saline was administered 15 min after gas exposure; thereafter, animals were exposed to the gas mixture for a further 90 min.
Immediately after injection of formalin, behavior was recorded for 60 min with a video camera (MegaPixel, Digital Handycam, Sony) positioned approximately 50 cm beneath the floor of the chamber to allow an unobstructed view of the paws (visible via a television monitor) and to facilitate recording of animal behavior. The chamber and holding area for pups waiting to be tested were maintained at room temperature throughout the experiment.
Older rat pups were scored across four categories of pain behavior after xenon administration: no pain (the injected paw was in continuous contact with floor=“0”), favoring (the injected paw rested lightly on the floor=“1”), lifting (the injected paw was elevated all the time=“2”) and licking (licking, biting or shaking of the injected paw=“3”) [Teng C J et al, Pain 1998;76:337-47] and calculated as [Nociceptive score =(T1+[T2×2]+[T3×3])/300, where T1, T2 and T3 are the durations (sec) spent in categories 1, 2 or 3 per 300 sec epoch].
The nociceptive intensity scoring against time in each animal was plotted and the area under curve (over a 60 min time period) (AUC) from each animal was calculated. The mean of c-Fos positive neurons for three representative sections in each region as described above was the aggregate score for each animal. The results of nociceptive intensity or c-Fos positive neurons are reported as means±SEMs. The statistical analysis was performed by one-way analysis of variance, followed by Newman-Keuls test. A p value <0.05 was regarded as statistically significant.

[5] = administration of xenon; cited from earlier work
[6] = system: NMDA receptor; conditions: 80% xenon; cultured hippocampal neurons; cited from earlier work
[7] = in vivo; cited from earlier work
[8] = system: c-Fos expression; assay: Formalin-induced c-Fos expression at the lumbar level of the spinal cord (immunohistochemistry); assay type: in vivo, rat; conditions: ipsilateral, 70% Xe; for reduction of c-Fos expression in response to formalin: 7 day-old pups; for suppression of mean c-Fos expression: 19 day-old rats; for depression of c-Fos expression in response to formalin: 28 day-old rats; for inhibition of c-Fos expression: adult rats
Experimental: as §1, §2, §3
Ninety min after the formalin injection, animals were deeply anesthetised with pentobarbital (100 mg/kg, i.p.) and perfused with 4% paraformaldehyde. The whole spinal cord was removed. The lumbar enlargement was sectioned transversely at 30 μm and then was stained for c-Fos as previously described [Ma D et al, Br J Anaesth 2002;89:73946]. Briefly, sections were incubated for 30 min in 0.3% H2O2 in methanol and thereafter washed three times in 0.1M phosphate buffered saline (PBS). Following this, the sections were incubated for 1 hour in a “blocking solution” consisting of 3% donkey serum and 0.3% Triton X in PBS (PBT) and subsequently incubated overnight at 4° C. in 1:5,000 goat anti-c-Fos antibody (sc-52-G, Santa Cruz Biotechnology, Santa Cruz, Calif.) in PBT with 1% donkey serum. The sections were then rinsed 3 times with PBT and incubated with 1:200 donkey anti-goat IgG (Vector laboratories, Burlingame, Calif.) in PBT with 1% Donkey serum for 1 hour. The sections were washed again with PBT and incubated with avidin-biotin-peroxidase complex (Vector Laboratories) in PBT for 1 hour. The sections were rinsed 3 times with PBS and stained with 3,3′-diaminobenzidine (DAB) with nickel ammonium sulphate in which hydrogen peroxide was added (DAB kit, Vector Laboratories). After the staining was completed, the sections were rinsed in PBS followed by distilled water and mounted, dehydrated with 100% ethanol, cleaned with 100% xylene and covered with cover slips.
Photomicrographs of three sections per each animal were scored for c-Fos positive neurons by an observer who was blinded to the experimental treatment. For the purpose of localizing the c-Fos positive cells to functional regions of the spinal cord, each section was divided into A/B (laminae I-II or the superficial area), C (laminae […] or nucleus proprius area), D (laminae V-VI or the neck area and E (laminae VII-Xor the ventral area) [Yi D K et al, Pain 1995;60:257-265]. […]

In the case of `[N-]=[N+]=O` [N2O, Nitrous oxide], the “antinociceptive effect (behaviorally and immunohistochemically)” value ([1]; animals younger than 23 days old, formalin) is given as “no antinociceptive effect”, the “antinociceptive effects against thermal and inflammatory stimulation” value ([1]; rats under 3 weeks of age) is given as “lacks antinociceptive effects” and the “effect on formalin-induced c-Fos positive neurones” value [2] is given as “did not change”. For the same compound, the MAC ([3]; humans) was 104%.
In the case of `[Xe]` [xenon], the “area under curve (AUC) of nociceptive intensity scoring curves” value (“area under curve (AUC)” below) ([4]; 7-day-old Fischer rats, P<0.001 vs Air + formalin 11(0.4)) is reported as 0.17(0.04)**, the “area under curve (AUC)” value ([4]; 19-day-old Fischer rats, P<0.01 vs Air + formalin 88(8)) is reported as 5(0.9)* and the “area under curve (AUC)” value ([4]; 28-day-old Fischer rats, P<0.001 vs Air + formalin 81(7)) is reported as 1.0(0.3)**. For the same compound, the “nociceptive behaviour after formalin injection” value ([4]; 7 day-old rats exposed to xenon, 60-min observation period) was “only mild nociceptive behaviour for the first two minutes”, the “area under curve (AUC)” value ([4]; Adult Fischer rats, P<0.001 vs Air + formalin 120(0.7)) was 0.8(0.1)** and the “inherent neurotoxicity of NMDA antagonists” value [5] was “does not appear to exist”. The “effect on formalin-induced c-Fos positive neurones” value [2] was “almost completely attenuated”, the “reduction of NMDA-activated currents” value [6] was “up to 60%” and the teratogenic effects [7] was “devoid of teratogenic effects”. The “minimum alveolar concentration (MAC)” value ([3]; elderly female patients) was 51 % atn, the “minimum alveolar concentration (MAC)” value ([3]; humans) was 71 % atm and the MAC-awake ([3]; in vivo) was 33%. For the same compound, the “reduction of c-Fos expression in response to formalin” value (“reduction of c-Fos expression” for short) ([8]; lamina C, P<0.001) was 50%, the “reduction of c-Fos expression” value ([8]; lamina D, P<0.001) was 50% and the “reduction of c-Fos expression” value ([8]; lamina E, P<0.01) was 28%. For the same compound, the “reduction of c-Fos expression” value ([8]; laminae A/B, P<0.001) was 48%, the “suppression of mean c-Fos expression” value ([8]; lamina III-IV, P<0.001) was 57% and the “suppression of mean c-Fos expression” value ([8]; lamina V-VI, P<0.001) was 62%. For the same compound, the “suppression of mean c-Fos expression” value ([8]; laminae I-II, P<0.001) was 55%, the “depression of c-Fos expression in response to formalin” value (“depression of c-Fos expression” for short) ([8]; lamina III-IV, P<0.001) was 27% and the “depression of c-Fos expression” value ([8]; lamina V-VI, P<0.001) was 28%. The “depression of c-Fos expression” value ([8]; laminae I-II, P<0.001) was 34%, the “inhibition of c-Fos expression” value ([8]; lamina III-IV, P<0.001) was 45% and the “inhibition of c-Fos expression” value ([8]; lamina V-VI, P<0.001) was 34%. The “inhibition of c-Fos expression” value ([8]; laminae I-II, P<0.001) was 41%.
